Tests used:
[1] = system: A549 (NSCLC); test: Anti-proliferative activity (Cell-Titre luminescence) against A549 non-small cell lung cancer cells; type: cell-based; settings: 72 h exposure, Cell-Titre luminescent reagent
Experimental: (§1) The ability of compounds of the invention to inhibit the proliferation of cancer cells representative of non-small cell lung cancer and ovarian cancer (Table 2), pancreatic cancer, colorectal cancer and prostate cancer (Table 3) was assessed. Briefly, a predetermined number of cells as calculated from cell growth assays for each of the cell lines employed were seeded into their respective culture medium (using ATCC culture parameters—http://www.atcc.org) and cultured for 24 h at 37° C. and 5% CO2 in 96-well culture plates. Once attached, each cell line was then exposed to various concentrations of each respective analogue (30, 10, 3, 1, 0.3 and 0.1 μM), cultured for a further 72 h and exposed to Cell-Titre luminescent reagent (100 μL/well) for a further 30 min. Luminescence was captured using an EnVision multilabel reader and the data for each analogue concentration compared against no treatment control. Cell viability was normalised to control (vehicle alone) and dose response curves, and half maximal effective concentration (EC50) values were determined using Graph Pad Prism 6 (nonlinear regression sigmoidal dose-response variable slope).

[2] = system: A2780 (ovarian); test: Anti-proliferative activity (Cell-Titre luminescence) against A2780 ovarian cancer cells; type: cell-based; settings: 72 h exposure, Cell-Titre luminescent reagent
Experimental: as §1

IC50 ([1]; Homo sapiens, A549, 72 h) [µM] | IC50 ([2]; Homo sapiens, A2780, 72 h) [µM] | IC50 [1] [µM] | IC50 [2] [µM] | Compound
> 30 | > 30 | – | – | OCCNc1nc(N2CCCC2)nc2ccccc12 [Compound 24, 2-((2-(pyrrolidin-1-yl)quinazolin-4-yl)amino)ethan-1-ol]
5.85 | 6.22 | – | – | CN1CCN(CCNc2nc(NCCc3cccc(F)c3)nc3ccccc23)CC1 [Compound 58, N^2-(3-fluorophenethyl)-N^4-(2-(4-methylpiperazin-1-yl)ethyl)quinazoline-2,4-diamine]
> 30 | > 30 | – | – | OCCNc1nc(-c2cc[nH]c2)nc2ccccc12 [Compound 21, 2-((2-(1H-pyrrol-3-yl)quinazolin-4-yl)amino)ethan-1-ol]
3.04 | 2.34 | – | – | CN1CCN(CCNc2nc(NCc3cccc(C(F)(F)F)c3)nc3ccccc23)CC1 [Compound 46, N^4-(2-(4-methylpiperazin-1-yl)ethyl)-N^2-(3-(trifluoromethyl)benzyl)quinazoline-2,4-diamine]
– | – | 6.09 | 1.03 | N^2-(3-methoxyphenyl)-N^4-(2-(4-methylpiperazin-1-yl)ethyl)quinazoline-2,4-diamine [Compound 43]
> 30 | > 30 | – | – | CN1CCN(CCNc2nc(-c3ccoc3)nc3ccccc23)CC1 [Compound 15, 2-(furan-3-yl)-N-(2-(4-methylpiperazin-1-yl)ethyl)quinazolin-4-amine]
3.3 | 1.22 | – | – | CN1CCN(CCNc2nc(NCCc3cc(F)c(F)c(F)c3)nc3ccccc23)CC1 [Compound 141, N^4-(2-(4-methylpiperazin-1-yl)ethyl)-N^2-(3,4,5-trifluorophenethyl)quinazoline-2,4-diamine]
8.56 | 8.3 | – | – | CC(C)C(CNc1nc(-c2ccc[nH]2)nc2ccccc12)N1CCN(C)CC1 (centres unmarked) [Compound 4, N-(3-methyl-2-(4-methylpiperazin-1-yl)butyl)-2-(1H-pyrrol-2-yl)quinazolin-4-amine]
2.52 | 1.24 | – | – | FC(F)(F)c1cccc(CCNc2nc(NCCN3CCCC3)c3ccccc3n2)c1 [Compound 115, N^4-(2-(pyrrolidin-1-yl)ethyl)-N^2-(3-(trifluoromethyl)phenethyl)quinazoline-2,4-diamine]
8.06 | 8.59 | – | – | CC(C)C(CNc1nc(-c2ccsc2)nc2ccccc12)N1CCN(C)CC1 (centres unmarked) [Compound 1, N-(3-methyl-2-(4-methylpiperazin-1-yl)butyl)-2-(thiophen-3-yl)quinazolin-4-amine]
22 | 16.9 | – | – | OCCNc1nc(Nc2ccccc2)nc2ccccc12 [Compound 26, 2-((2-(phenylamino)quinazolin-4-yl)amino)ethan-1-ol]
19.4 | 11.8 | – | – | CN(C)CCCNc1nc(-c2ccsc2)nc2ccccc12 [Compound 100, N^1,N^1-dimethyl-N^3-(2-(thiophen-3-yl)quinazolin-4-yl)propane-1,3-diamine]
11.2 | 3.43 | – | – | CN(C)CCCNc1nc(Nc2cccc(F)c2)nc2ccccc12 [Compound 72, N^4-(3-(dimethylamino)propyl)-N^2-(3-fluorophenyl)quinazoline-2,4-diamine]
9.19 | 4.87 | – | – | OCCCNc1nc(-c2cc[nH]c2)nc2ccccc12 [Compound 110, 3-((2-(1H-pyrrol-3-yl)quinazolin-4-yl)amino)propan-1-ol]
8.86 | 2.68 | – | – | CN1CCN(CCNc2nc(NCCc3ccc(N(C)C)cc3)nc3ccccc23)CC1 [Compound 134, N^2-(4-(dimethylamino)phenethyl)-N^4-(2-(4-methylpiperazin-1-yl)ethyl)quinazoline-2,4-diamine]
3.7 | 5.54 | – | – | CN1CCN(CCNc2nc(NCCc3ccc(F)cc3)nc3ccccc23)CC1 [Compound 59, N^2-(4-fluorophenethyl)-N^4-(2-(4-methylpiperazin-1-yl)ethyl)quinazoline-2,4-diamine]
19.4 | 6.17 | – | – | COc1ccc(CCNc2nc(NCCN(C)C)c3ccccc3n2)cc1 [Compound 65, N^4-(2-(dimethylamino)ethyl)-N^2-(4-methoxyphenethyl)quinazoline-2,4-diamine]
14.8 | 2.5 | – | – | CN1CCN(CCNc2nc(NCCc3cccc(C#N)c3)nc3ccccc23)CC1 [Compound 126, 3-(2-((4-((2-(4-methylpiperazin-1-yl)ethyl)amino)quinazolin-2-yl)amino)ethyl)benzonitrile]
5.9 | 7.59 | – | – | CN(C)CCNc1nc(NCCc2cccc(F)c2)nc2ccccc12 [Compound 67, N^4-(2-(dimethylamino)ethyl)-N^2-(3-fluorophenethyl)quinazoline-2,4-diamine]

IC50 ([1]; Homo sapiens, A549, 72 h) [µM] | IC50 ([2]; Homo sapiens, A2780, 72 h) [µM] | IC50 [1] [µM] | IC50 [2] [µM] | Compound
5.92 | 8.89 | – | – | CC(C)C(CNc1nc(-c2cccs2)nc2ccccc12)N1CCN(C)CC1 (centres unmarked) [Compound 3, N-(3-methyl-2-(4-methylpiperazin-1-yl)butyl)-2-(thiophen-2-yl)quinazolin-4-amine]
15.7 | 14.1 | – | – | CN1CCN(CCNc2nc(NCCc3ccncc3)nc3ccccc23)CC1 [Compound 146, N^4-(2-(4-methylpiperazin-1-yl)ethyl)-N^2-(2-(pyridin-4-yl)ethyl)quinazoline-2,4-diamine]
4 | 2.38 | – | – | CN1CCN(CCNc2nc(NCCc3ccccc3F)nc3ccccc23)CC1 [Compound 121, N^2-(2-fluorophenethyl)-N^4-(2-(4-methylpiperazin-1-yl)ethyl)quinazoline-2,4-diamine]
> 30 | 11.9 | – | – | COc1ccc(CCNc2nc(NCCO)c3ccccc3n2)cc1 [Compound 39, 2-((2-((4-methoxyphenethyl)amino)quinazolin-4-yl)amino)ethan-1-ol]
> 30 | > 30 | – | – | c1csc(-c2nc(NCCc3c[nH]cn3)c3ccccc3n2)c1 [Compound 104, N-(2-(1H-imidazol-4-yl)ethyl)-2-(thiophen-2-yl)quinazolin-4-amine]
22.2 | 10.3 | – | – | CN(C)CCNc1nc(-n2cccc2)nc2ccccc12 [Compound 99, N^1-(2-(1H-pyrrol-1-yl)quinazolin-4-yl)-N^2,N^2-dimethylethane-1,2-diamine]
9.48 | 3.01 | – | – | CN1CCN(CCNc2nc(NCCc3ccc4c(c3)OCO4)nc3ccccc23)CC1 [Compound 143, N^2-(2-(benzo[d][1,3]dioxol-5-yl)ethyl)-N^4-(2-(4-methylpiperazin-1-yl)ethyl)quinazoline-2,4-diamine]
3.36 | 2.38 | – | – | CN1CCN(CCNc2nc(NCCc3ccccc3Cl)nc3ccccc23)CC1 [Compound 123, N^2-(2-chlorophenethyl)-N^4-(2-(4-methylpiperazin-1-yl)ethyl)quinazoline-2,4-diamine]
9.21 | 6.91 | – | – | COc1cccc(Nc2nc(NCCO)c3ccccc3n2)c1 [Compound 29, 2-((2-((3-methoxyphenyl)amino)quinazolin-4-yl)amino)ethan-1-ol]
3.18 | 2.81 | – | – | CN1CCN(CCNc2nc(NCCc3cccs3)nc3ccccc23)CC1 [Compound 147, N^4-(2-(4-methylpiperazin-1-yl)ethyl)-N^2-(2-(thiophen-2-yl)ethyl)quinazoline-2,4-diamine]
4.94 | 1.69 | – | – | CN1CCN(CCNc2nc(Nc3ccc(C(F)(F)F)cc3)nc3ccccc23)CC1 [Compound 42, N^4-(2-(4-methylpiperazin-1-yl)ethyl)-N^2-(4-(trifluoromethyl)phenyl)quinazoline-2,4-diamine]
3.05 | 1.62 | – | – | COCCCNc1nc(NCCc2cccc(C(F)(F)F)c2)nc2ccccc12 [Compound 117, N^4-(3-methoxypropyl)-N^2-(3-(trifluoromethyl)phenethyl)quinazoline-2,4-diamine]
> 30 | 13.7 | – | – | CCc1ccc(CCNc2nc(NCCN(C)C)c3ccccc3n2)cc1 [Compound 66, N^4-(2-(dimethylamino)ethyl)-N^2-(4-ethylphenethyl)quinazoline-2,4-diamine]
4.94 | 5.79 | – | – | CC(C)C(CNc1nc(-n2cccc2)nc2ccccc12)N1CCN(C)CC1 (centres unmarked) [Compound 9, N-(3-methyl-2-(4-methylpiperazin-1-yl)butyl)-2-(1H-pyrrol-1-yl)quinazolin-4-amine]
8.24 | 10.2 | – | – | CN1CCN(CCNc2nc(-c3ccc[nH]3)nc3ccccc23)CC1 [Compound 12, N-(2-(4-methylpiperazin-1-yl)ethyl)-2-(1H-pyrrol-2-yl)quinazolin-4-amine]
7.41 | 5.81 | – | – | CN1CCN(CCNc2nc(SCCc3cccc(C(F)(F)F)c3)nc3ccccc23)CC1 [Compound 151, N-(2-(4-methylpiperazin-1-yl)ethyl)-2-((3-(trifluoromethyl)phenethyl)thio)quinazolin-4-amine]
10.2 | 10.8 | – | – | CC(C)C(CNc1nc(-c2ccoc2)nc2ccccc12)N1CCN(C)CC1 (centres unmarked) [Compound 7, 2-(furan-3-yl)-N-(3-methyl-2-(4-methylpiperazin-1-yl)butyl)quinazolin-4-amine]
11.7 | 8.33 | – | – | COc1ccc(Nc2nc(NCCCN(C)C)c3ccccc3n2)cc1 [Compound 70, N^4-(3-(dimethylamino)propyl)-N^2-(4-methoxyphenyl)quinazoline-2,4-diamine]

Reference: patent publication US20230339866A1, “Quinazoline compounds and the use thereof in the treatment of cancer” (TROBIO THERAPEUTICS PTY LTD, priority 2020, published 2023)
